Legend:
[1] = tested on: acyl-coenzyme A: cholesterol acyltransferase; test: Inhibition of ACAT / intracellular cholesterol esterification in vitro (procedure of Ross et al.); type: cell-based; conditions: for IC50: read-out: IC50
[2] = tested on: plasma cholesterol; test: Plasma cholesterol in cholesterol-cholic acid fed rats; type: in vivo; conditions: Rattus norvegicus, oral gavage; for change in vivo at 60 mg/kg / change in vivo at 100 mg/kg / change in vivo at 40 mg/kg / change in vivo at 20 mg/kg: 96 h, four days, read-out: % Decrease in Plasma Cholesterol
Procedure: In addition, representative compounds were studied in vivo in cholesterol-cholic acid fed rats to determine the percent decrease of cholesterol in their plasma. This study involves rats which are, prior to testing, trained for one week to eat over a four hour time period each day. Upon initiation of the experiment, the rats diet is supplemented with 1.0 percent cholesterol and 0.25 percent cholic acid. The rats are dosed with the test compound by oral gavage just prior to adjust following the four hour feeding period. This is repeated for four days. On the fifth day, the rats are sacrificed and the total plasma cholesterol content is determined. The percent decrease in elevated plasma cholesterol levels is calculated in comparison with […].

[3] = tested on: cholesterol absorption; test: 14C-cholesterol absorption in normal rats (oral gavage); type: in vivo; conditions: Rattus norvegicus, normal rats, read-out: % Inhibition of Absorption
Procedure: Representative compounds were further tested in vivo to establish the percent inhibition of cholesterol absorption. In this study, normal rats were dosed (oral gavage) with ^14 C-cholesterol plus the test compound. Blood samples taken at six hours and/or intermittently up to twenty-four hours were analyzed and the percent inhibition of cholesterol absorption was calculated.

Compound | % Inhibition ([1]; 25 μM) | IC50 [1] | further results
CCCCCCCN(Cc1ccc(CC(C)C)cc1)C(Nc1ccc(OC)cc1OC)=C1C(=O)OC(C)(C)OC1=O [Compound 31, 5-[[(2,4,-Dimethoxyphenyl)amino][heptyl[[4-(2-methylpropyl)phenyl]methyl]amino]methylene]-2,2-dimethyl-1,3-dioxane-4,6-dione] | 97% | 910 nM | change in vivo at 60 mg/kg [2]: -71%
CCCCCCCN(Cc1ccc(OCCC(C)C)cc1)C(Nc1ccc(N(C)C)cc1)=C1C(=O)OC(C)(C)OC1=O [Compound 22, 5-[[[4-(Dimethylamino)phenyl]amino][heptyl[[[4-(3-methylbutyl)oxy]phenyl]methyl]amino]-methylene]-2,2-dimethyl-1,3-dioxane4,6-dione] | 93% | 370 nM | change in vivo at 60 mg/kg [2]: -46%
COc1ccc(NC(=C2C(=O)OC(C)(C)OC2=O)N(Cc2ccc(C(C)(C)C)cc2)C(C)CCCC(C)C)c(OC)c1 (stereo not drawn) [Compound 29, 5-[[(2,4-Dimethoxyphenyl)amino][[[4-(1,1-dimethylethyl)phenyl]methyl](1,5-dimethylhexyl)-amino]methylene]-2,2-dimethyl-1,3-dioxane-4,6-dione] | 99% | 230 nM | change in vivo at 100 mg/kg [2]: -84%
CCCCCC(C)N(Cc1ccc(OCCC(C)C)cc1)C(Nc1ccc(N(C)C)cc1)=C1C(=O)OC(C)(C)OC1=O (stereo not drawn) [Compound 38, 5-[[[4-(Dimethylamino)phenyl]amino][[[4-(3-methylbutoxy)phenyl]methyl](1-methylhexylhexyl)amino]methylene]-2,2-dimethyl-1,3-dioxane-4,6-dione] | 99% | 210 nM | change in vivo at 40 mg/kg [2]: -58%
CCCCCCC(CCCCCC)N(Cc1ccc(CC(C)C)cc1)C(Nc1ccc(N(C)C)cc1)=C1C(=O)OC(C)(C)OC1=O [Compound 36] |  | 44 nM | % Inhibition ([1]; 26 μM): 99%; change in vivo at 20 mg/kg [2]: -62%
CCCCc1ccc(CN(C(Nc2ccc(N(C)C)cc2)=C2C(=O)OC(C)(C)OC2=O)C(C)CCCC(C)(C)O)cc1 (stereo not drawn) [Compound 45, 5-[[[(4-Butylphenyl)methyl](5-hydroxy-1,5-dimethylhexyl)amino][[4-(dimethylamino)phenyl]-amino]-methylene]-2,2-dimethyl-1,3-dioxane-4,6-dione] | 90% | 5200 nM | change in vivo at 20 mg/kg [2]: -29%
CCCCOc1ccc(NC(=C2C(=O)OC(C)(C)OC2=O)N(Cc2ccc(C(C)(C)C)cc2)C(C)CCCC(C)C)cc1 (stereo not drawn) [Compound 28, 5-[[(4-Butoxyphenyl)amino][[[4-(1,1-dimethylethyl)phenyl]methyl](1,5-dimethylhexyl)amino]-methylene]-2,2-dimethyl-1,3-dioxane-4,6-dione] | 98% | 690 nM | change in vivo at 40 mg/kg [2]: -15%
COc1ccc(NC(=C2C(=O)OC(C)(C)OC2=O)N(Cc2ccc(CC(C)C)cc2)C2CCN(CCc3ccccc3)CC2)c(OC)c1 [Compound 8, 5-[[(2,4-Dimethoxyphenyl)amino][[[4-(2-methylpropyl)phenyl]methyl][1-(phenylethyl)-4-piperidinyl]amino]methylene]-2,2-dimethyl-1,3-dioxane-4,6-dione] | 85% | 5600 nM | change in vivo at 10 mg/kg [3]: -16%
COc1ccc(NC(=C2C(=O)OC(C)(C)OC2=O)N(Cc2ccc(CC(C)C)cc2)C(C)CCCC(C)(C)O)c(OC)c1 (stereo not drawn) [Compound 52, 5-[[(2,4-Dimethoxyphenyl)amino][(5-hydroxy-1,5-dimethylhexyl)[[4-(2-methylpropyl)phenyl]-methyl]amino]methylene]-2,2-dimethyl-1,3-dioxane-2,4-dione] | 89% | 5600 nM | change in vivo at 10 mg/kg [3]: -29%
CC1(C)OC(=O)C(=C(Nc2cc(C(C)(C)C)c(O)c(C(C)(C)C)c2)Nc2cnc3ccccc3c2)C(=O)O1 [Compound 81, 5-[(3,5-Di-tert-butyl-4-hydroxy-phenylamino)-(quinolin-3-ylamino)-methylene]-2,2-dimethyl-[1,3]dioxane-4,6-dione] |  |  | % Inhibition ([1]; 50 μM): 90%; change in vivo at 3 mg/kg ([3]; 3 mg/kg): -90%
CCCCCCCN(Cc1ccc(OCCC(C)C)cc1)C(Nc1ccc(OC)cc1OC)=C1C(=O)OC(C)(C)OC1=O [Compound 6, 5-[[(2,4-Dimethoxyphenyl)amino][heptyl[[4-[(3-methylbutyl)oxy]phenyl]methyl]amino]-methylene]-2,2-dimethyl-1,3-dioxane-4,6-dione] | 99% | 1500 nM | change in vivo at 100 mg/kg [2]: -42%
CC(C)Cc1ccc(CN(C(Nc2ccc(N(C)C)cc2)=C2C(=O)OC(C)(C)OC2=O)C(C)CCCC(C)(C)O)cc1 (stereo not drawn) [Compound 53] | 81% | 5200 nM | change in vivo at 10 mg/kg [3]: -50%
CCCCCCCN(Cc1ccc(CCCCC)cc1)C(Nc1ccc(OC)cc1OC)=C1C(=O)OC(C)(C)OC1=O [Compound 14, 5-[[(2,4-Dimethoxyphenyl)amino][heptyl[(4-pentylphenyl)methyl]amino]methylene]-2,2-dimethyl-1,3-dioxane-4,6-dione] | 99% | 840 nM | change in vivo at 100 mg/kg [2]: -85%; ED50 ([2]; fifty percent reduction of plasma cholesterol): 16 mg/kg
CCCCCCCN(Cc1ccc(C(C)(C)C)cc1)C(Nc1ccc(F)cc1)=C1C(=O)OC(C)(C)OC1=O [Compound 67] |  | 4500 nM | % Inhibition ([1]; 50 μM): 89%
COc1ccc(NC(=C2C(=O)OC(C)(C)OC2=O)N(Cc2ccc(CC(C)C)cc2)C(C)CCCC(C)C)c(OC)c1 (stereo not drawn) [Compound 39, 5-[[(2,4-Dimethoxyphenyl)amino][(1,5-dimethylhexyl)[[4-(2-methylpropyl)phenyl]methyl]amino]methylene]-2,2-dimethyl-1,3-dioxane-4,6-dione] | 99% | 370 nM | change in vivo at 40 mg/kg [2]: -65%
COc1ccc(NC(=C2C(=O)OC(C)(C)OC2=O)N(Cc2ccc(CC(C)C)cc2)[C@@H](CO)CC(C)C)c(OC)c1 [Compound 74, (R)-5-[[(2,4-Dimethoxyphenyl)amino][[1-(hydroxymethyl)-3-methylbutyl][[4-(2-methylpropyl)-phenyl]methyl]amino]methylene]-2,2-dimethyl-1,3-dioxane-4,6,-dione] |  | 290 nM | % Inhibition ([1]; concentration not given): 97%
COc1ccc(NC(NCC2(c3ccccc3)CCCC2)=C2C(=O)OC(C)(C)OC2=O)c(OC)c1 [Compound 9, 5-[[(2,4-Dimethoxyphenyl)amino][[(1-phenylcyclopentyl)methyl]amino]methylene]-2,2-dimethyl-1,3-dioxane-4,6-dione] | 98% | 5600 nM | 
CCCCCCCN(Cc1ccc(CCC(C)C)cc1)C(Nc1ccc(OC)cc1OC)=C1C(=O)OC(C)(C)OC1=O [Compound 55, 5-[[(2,4-Dimethoxyphenyl)amino][heptyl[[4-(3-methylbutyl)phenyl]methyl]amino]methylene]2,2-dimethyl-1,3-dioxane-4,6-dione] | 97% | 3000 nM | change in vivo at 20 mg/kg [2]: -40%
CCCCCCCN(Cc1ccc(CCCCCC)cc1)C(Nc1ccc(F)cc1F)=C1C(=O)OC(C)(C)OC1=O [Compound 18, 5-[[(2,4-Difluorophenyl)amino][[(4-hexylphenyl)methyl]heptylamino]methylene]-2,2-dimethyl-1,3-dioxane-4,6-dione] |  |  | % Inhibition ([1]; 50 μM): 60%
COc1ccc(NC(=C2C(=O)OC(C)(C)OC2=O)N(Cc2ccc(CC(C)(C)C)cc2)CC2(c3ccccc3)CCCC2)c(OC)c1 [Compound 10, 5-[[(2,4-Dimethoxyphenyl)amino][[[4-(2,2-dimethylpropyl)phenyl]methyl)][(1-penylcyclo-pentylmethyl]amino]methylene]-2,2-dimethyl-3-dioxane-4,6-dione] | 97% | 290 nM | 
CCCCCc1ccc(CN(C(Nc2ccc(N(C)C)cc2C)=C2C(=O)OC(C)(C)OC2=O)C(C)CCCCC)cc1 (stereo not drawn) [Compound 54, 5-[[[4-(Dimethylamino)-2-methylphenyl]amino][(1-methylhexyl)[(4-pentylphenyl)methyl]-amino]methylene]-2,2-dimethyl-1,3-dioxane-4,6-dione] | 98% | 680 nM | change in vivo at 20 mg/kg [2]: -77%
CCCCCCCN(Cc1ccc(C(C)(C)C)cc1)C(Nc1c(OC)cc(OC)cc1OC)=C1C(=O)OC(C)(C)OC1=O [Compound 59, 5-[[[[4-(1,1-Dimethylethyl)phenyl]methyl]heptylamino][(2,4,6-trimethoxyphenyl)amino]-methylene]-2,2-dimethyl-1,3-dioxane-4,6-dione] | 94% | 700 nM | change in vivo at 200 mg/kg ([3]; 200 mg/kg): -21%
CCCCCC(C)N(Cc1ccc(OCCC(C)C)cc1)C(Nc1ccc(OC)cc1OC)=C1C(=O)OC(C)(C)OC1=O (stereo not drawn) [Compound 35] | 99% | 540 nM | change in vivo at 40 mg/kg [2]: -55%
CCCCCC(C)N(Cc1ccc(CC(C)C)cc1)C(Nc1cccc(OCc2ccccc2)c1)=C1C(=O)OC(C)(C)OC1=O (stereo not drawn) [Compound 34] | 98% | 1100 nM | change in vivo at 20 mg/kg [2]: -32%
